Measurements as given in US20240116892A1, “HETEROCYCLIC AMIDE AND UREA COMPOUNDS AS JAK2 INHIBITORS” (Ajax Therapeutics, Inc., priority 2022, published 2024).

Target: JAK2 (JH1 domain-catalytic, Y1007F, Y1008F) kinase (Homo sapiens (Human), UniProt O60674, Y1007F/Y1008F)
Test: JAK2 JH1 Domain Binding Assay
Conditions: qPCR readout
Outline: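 Competitive binding format: test compound, DNA-tagged JAK2 JH1 (Y1007F/Y1008F; HEK293-expressed NFkB fusion) and ligand-coated magnetic beads incubated 1 h at room temperature. Kinase retained on beads released with 0.5 μmol/L non-biotinylated ligand, then measured by qPCR.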

JAK2 (JH1 domain-catalytic, Y1007F, Y1008F) kinase, sequence (O60674 849-1124 Y1007F/Y1008F): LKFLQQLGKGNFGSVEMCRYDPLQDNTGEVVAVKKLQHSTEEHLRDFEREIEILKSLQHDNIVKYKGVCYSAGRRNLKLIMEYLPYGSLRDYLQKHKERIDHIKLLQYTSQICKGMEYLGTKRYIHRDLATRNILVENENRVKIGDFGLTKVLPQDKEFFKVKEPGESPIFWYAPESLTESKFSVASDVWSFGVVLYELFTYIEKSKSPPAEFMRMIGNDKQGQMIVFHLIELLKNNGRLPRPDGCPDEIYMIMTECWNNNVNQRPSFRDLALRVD

| Kd [µM] | Compound |
| --- | --- |
| < 0.01 | CNc1n[nH]c2ncc(N3CC[C@H](N(C)C(=O)Nc4cc(C(F)(F)F)cn(C)c4=O)[C@H](F)C3)cc12 [Example I-97-b, 1-((3R,4S)-3-fluoro-1-(3-(methylamino)-1H-pyrazolo[3,4-b]pyridin-5-yl)piperidin-4-yl)-1-methyl-3-(1-methyl-2-oxo-5-(trifluoromethyl)-1,2-dihydropyridin-3-yl)urea] |
| < 0.01 | Cc1n[nH]c2ncc(N3CCC(N(C)C(=O)Nc4cc(C(F)(F)F)cn(C)c4=O)CC3)cc12 [Example I-28, 1-methyl-1-(1-(3-methyl-1H-pyrazolo[3,4-b]pyridin-5-yl)piperidin-4-yl)-3-(1-methyl-2-oxo-5-(trifluoromethyl)-1,2-dihydropyridin-3-yl)urea] |
| 0.01 to 0.05 | CN(C(=O)Nc1cc(C(F)(F)F)cn(C)c1=O)[C@@H]1CCN(c2cnc3[nH]n(C)c(=O)c3c2)C[C@H]1F [Example I-90-b, 1-((3R,4R)-3-fluoro-1-(2-methyl-3-oxo-2,3-dihydro-1H-pyrazolo[3,4-b]pyridin-5-yl)piperidin-4-yl)-1-methyl-3-(1-methyl-2-oxo-5-(trifluoromethyl)-1,2-dihydropyridin-3-yl)urea] |
| 1 to 5 | CN(C(=O)Nc1cc(C(F)(F)F)cn(C)c1=O)[C@H]1CCN(c2cnc3[nH]nc(OC4COC4)c3c2)C[C@H]1F [Example I-101-b, 1-((3R,4S)-3-fluoro-1-(3-(oxetan-3-yloxy)-1H-pyrazolo[3,4-b]pyridin-5-yl)piperidin-4-yl)-1-methyl-3-(1-methyl-2-oxo-5-(trifluoromethyl)-1,2-dihydropyridin-3-yl)urea] |
| < 0.01 | Cc1c[nH]c2ncc(N3CCC(N(C)C(=O)Nc4cc(C(F)(F)F)cn(C)c4=O)C(F)(F)C3)nc12 (single isomer, unassigned) [Example I-33-a, (R)- or (S)-1-(3,3-difluoro-1-(7-methyl-5H-pyrrolo[2,3-b]pyrazin-2-yl)piperidin-4-yl)-1-methyl-3-(1-methyl-2-oxo-5-(trifluoromethyl)-1,2-dihydropyridin-3-yl)urea] |
| 0.01 to 0.05 | CO[C@@H]1CN(c2cnc3[nH]cc(C)c3n2)CC[C@H]1N(C)C(=O)Nc1cc(C(F)(F)F)cn(C)c1=O [Example I-118-a, 1-((3R,4R)-3-methoxy-1-(7-methyl-5H-pyrrolo[2,3-b]pyrazin-2-yl)piperidin-4-yl)-1-methyl-3-(1-methyl-2-oxo-5-(trifluoromethyl)-1,2-dihydropyridin-3-yl)urea] |
| 0.01 to 0.05 | CN(C(=O)Nc1cc(C(F)(F)F)cn(C)c1=O)[C@@H]1CCN(c2cnc3[nH]n(C)c(=O)c3c2)CC1(F)F [Example I-96-a, (R)-1-(3,3-difluoro-1-(2-methyl-3-oxo-2,3-dihydro-1H-pyrazolo[3,4-b]pyridin-5-yl)piperidin-4-yl)-1-methyl-3-(1-methyl-2-oxo-5-(trifluoromethyl)-1,2-dihydropyridin-3-yl)urea] |
| 0.05 to 1 | CN(C(=O)Nc1cc(C(F)(F)F)cn(C)c1=O)[C@@H]1CCN(c2cnc3[nH]ncc3c2)C[C@H]1OC(F)F.CN(C(=O)Nc1cc(C(F)(F)F)cn(C)c1=O)[C@H]1CCN(c2cnc3[nH]ncc3c2)C[C@@H]1OC(F)F (mixture of isomers) [Example I-167-a, 1-((3S,4S)-3-(difluoromethoxy)-1-(1H-pyrazolo[3,4-b]pyridin-5-yl)piperidin-4-yl)-1-methyl-3-(1-methyl-2-oxo-5-(trifluoromethyl)-1,2-dihydropyridin-3-yl)urea and 1-((3R,4R)-3-(difluoromethoxy)-1-(1H-pyrazolo[3,4-b]pyridin-5-yl)piperidin-4-yl)-1-methyl-3-(1-methyl-2-oxo-5-(trifluoromethyl)-1,2-dihydropyridin-3-yl)urea] |
| 0.01 to 0.05 | COc1c[nH]c2ncc(N3CC[C@@H](N(C)C(=O)Nc4cc(C(F)(F)F)cn(C)c4=O)C[C@H]3C)nc12 [Example I-161-b, 1-((2R,4R)-1-(7-methoxy-5H-pyrrolo[2,3-b]pyrazin-2-yl)-2-methylpiperidin-4-yl)-1-methyl-3-(1-methyl-2-oxo-5-(trifluoromethyl)-1,2-dihydropyridin-3-yl)urea] |
| 0.05 to 1 | CC(=O)Nc1cnc(N2CC[C@H](N(C)C(=O)Nc3cc(C(F)(F)F)cn(C)c3=O)C[C@@H]2C)cn1 [Example I-134-a, N-(5-((2S,4S)-2-methyl-4-(1-methyl-3-(1-methyl-2-oxo-5-(trifluoromethyl)-1,2-dihydropyridin-3-yl)ureido)piperidin-1-yl)pyrazin-2-yl)acetamide] |
| < 0.01 | CN(C(=O)Nc1cc(C(F)(F)F)ccn1)[C@H]1CCN(c2cnc3[nH]ncc3c2)C[C@@H]1F [Example I-176, 1-((3S,4S)-3-fluoro-1-(1H-pyrazolo[3,4-b]pyridin-5-yl)piperidin-4-yl)-1-methyl-3-(4-(trifluoromethyl)pyridin-2-yl)urea] |
| 0.05 to 1 | COc1c[nH]c2ncc([C@H]3CC[C@@H](N(C)C(=O)Nc4cc(C(F)(F)F)cn(C)c4=O)CC3)nc12 [Example I-171, cis-1-(4-(7-methoxy-5H-pyrrolo[2,3-b]pyrazin-2-yl)cyclohexyl)-1-methyl-3-(1-methyl-2-oxo-5-(trifluoromethyl)-1,2-dihydropyridin-3-yl)urea] |
| < 0.01 | CC(=O)Nc1cnc(C2=CC[C@@H](N(C)C(=O)Nc3cc(C(F)(F)F)cn(C)c3=O)CC2)cn1 [Example I-140-a, (S)—N-(5-(4-(1-methyl-3-(1-methyl-2-oxo-5-(trifluoromethyl)-1,2-dihydropyridin-3-yl)ureido)cyclohex-1-en-1-yl)pyrazin-2-yl)acetamide] |
| < 0.01 | CN(C(=O)Nc1cc(C(F)(F)F)cn(C)c1=O)[C@H]1CC=C(c2cnc3[nH]ccc3n2)CC1 (single isomer, unassigned) [Example I-82-b] |
| 0.01 to 0.05 | CN(C(=O)Nc1cc(C(F)(F)F)cn(C)c1=O)[C@H]1C[C@H]2C[C@@H]1CN2c1cnc2[nH]ccc2n1 [Example I-43-b, 1-((1R,4R,5S)-2-(5H-pyrrolo[2,3-b]pyrazin-2-yl)-2-azabicyclo[2.2.1]heptan-5-yl)-1-methyl-3-(1-methyl-2-oxo-5-(trifluoromethyl)-1,2-dihydropyridin-3-yl)urea] |
| < 0.01 | CN(C(=O)Nc1cc(C(F)(F)F)cn(C)c1=O)[C@H]1CCN(c2cnc3[nH]ncc3n2)C[C@H]1F [Example I-83-a, 1-((3R,4S)-3-fluoro-1-(1H-pyrazolo[3,4-b]pyrazin-5-yl)piperidin-4-yl)-1-methyl-3-(1-methyl-2-oxo-5-(trifluoromethyl)-1,2-dihydropyridin-3-yl)urea] |
| 0.01 to 0.05 | COc1cc(NC(=O)C2CC2)ncc1N1CCC(N(C)C(=O)Nc2cc(C(F)(F)F)cn(C)c2=O)CC1 [Example I-137, N-(4-methoxy-5-(4-(1-methyl-3-(1-methyl-2-oxo-5-(trifluoromethyl)-1,2-dihydropyridin-3-yl)ureido)piperidin-1-yl)pyridin-2-yl)cyclopropanecarboxamide] |
| 1 to 5 | Cc1cc(NC(=O)CC2CCN(c3cnccn3)CC2)cc(C(F)(F)F)c1 [Example I-1, N-(3-methyl-5-(trifluoromethyl)phenyl)-2-(1-(pyrazin-2-yl)piperidin-4-yl)acetamide] |
| < 0.01 | CN1CCN(c2n[nH]c3ncc(N4CC[C@@H](N(C)C(=O)Nc5cc(C(F)(F)F)cn(C)c5=O)C(F)(F)C4)cc23)CC1 (single isomer, unassigned) [Example I-154-a, (R)- or (S)-1-(3,3-difluoro-1-(3-(4-methylpiperazin-1-yl)-1H-pyrazolo[3,4-b]pyridin-5-yl)piperidin-4-yl)-1-methyl-3-(1-methyl-2-oxo-5-(trifluoromethyl)-1,2-dihydropyridin-3-yl)urea] |
| 0.01 to 0.05 | CN(C(=O)Nc1cc(C(F)(F)F)cn(C)c1=O)C1CCN(c2cnc3[nH]n(C4CCOCC4)c(=O)c3c2)CC1 [Example I-112, 1-methyl-3-(1-methyl-2-oxo-5-(trifluoromethyl)-1,2-dihydropyridin-3-yl)-1-(1-(3-oxo-2-(tetrahydro-2H-pyran-4-yl)-2,3-dihydro-1H-pyrazolo[3,4-b]pyridin-5-yl)piperidin-4-yl)urea] |
| < 0.01 | Cc1c[nH]c2ncc(N3CCC(N(C)C(=O)Nc4cc(C(F)(F)F)cn(C)c4=O)C(F)(F)C3)nc12 (single isomer, unassigned) [Example I-33-b, (S)- or (R)-1-(3,3-difluoro-1-(7-methyl-5H-pyrrolo[2,3-b]pyrazin-2-yl)piperidin-4-yl)-1-methyl-3-(1-methyl-2-oxo-5-(trifluoromethyl)-1,2-dihydropyridin-3-yl)urea] |
| < 0.01 | CN(C(=O)Nc1cc(C(F)(F)F)cn(C)c1=O)[C@@H]1CCN(c2cnc3cn[nH]c3c2)C[C@@H]1F [Example I-95-b, 1-((3S,4R)-3-fluoro-1-(1H-pyrazolo[4,3-b]pyridin-6-yl)piperidin-4-yl)-1-methyl-3-(1-methyl-2-oxo-5-(trifluoromethyl)-1,2-dihydropyridin-3-yl)urea] |
| 0.01 to 0.05 | CNc1cn2ncc(N3CCC(N(C)C(=O)Nc4cc(C(F)(F)F)cn(C)c4=O)CC3)c2cn1 [Example I-92, 1-methyl-3-(1-methyl-2-oxo-5-(trifluoromethyl)-1,2-dihydropyridin-3-yl)-1-(1-(6-(methylamino)pyrazolo[1,5-a]pyrazin-3-yl)piperidin-4-yl)urea] |
| < 0.01 | CN(C(=O)Nc1cc(C(F)(F)F)cn(C)c1=O)C1CCN(c2cnc3sncc3c2)CC1 [Example I-66, 1-(1-(isothiazolo[5,4-b]pyridin-5-yl)piperidin-4-yl)-1-methyl-3-(1-methyl-2-oxo-5-(trifluoromethyl)-1,2-dihydropyridin-3-yl)urea] |

| Compound | Kd [µM] |
| --- | --- |
| CN(C(=O)Nc1cc(C(F)(F)F)cn(C)c1=O)C1CCN(c2cnn3cc(O[C@H]4CC[C@@H]4O)ncc23)CC1 [Example I-129-b, 1-(1-(6-((1S,2S)-2-hydroxycyclobutoxy)pyrazolo[1,5-a]pyrazin-3-yl)piperidin-4-yl)-1-methyl-3-(1-methyl-2-oxo-5-(trifluoromethyl)-1,2-dihydropyridin-3-yl)urea] | < 0.01 |
